One assay relates to MCF7. The assay can be described thus: Antiproliferative activity against human MCF7 cells assessed as growth inhibition after 72 hrs by MTT assay. The class given is functional, cell-based. The following applies: MCF7, 72 h.
Another assay concerns CNE2Z. Nature of the assay: Antiproliferative activity against human CNE2Z cells assessed as growth inhibition after 72 hrs by MTT assay. Format: functional, cell-based.
Assay [1] has as its system I10. Nature of the assay: Antiproliferative activity against mouse I10 cells assessed as growth inhibition after 72 hrs by MTT assay. The class given is functional, cell-based. The following applies: I10, 72 h.
In assay [2] the test system is I10. The assay can be described thus: Antiproliferative activity against mouse I10 cells at 2.5 to 20 uM by MTT assay. Format: functional, cell-based. The conditions noted are these: TDE = time-dependent effect.
Assay [3] deals with I10. The assay can be described thus: Antiproliferative activity against mouse I10 cells after 24 to 72 hrs by MTT assay. Format: functional, cell-based.
The subject of assay [4] is I10. The assay can be described thus: Antiproliferative activity against mouse I10 cells at 20 uM after 24 to 72 hrs by MTT assay relative to control. Format: functional.
For assay [5], the system named is I10. Nature of the assay: Inhibition of cell migration in mouse I10 cells at 10 uM after 24 hrs under hypoxia condition by scratch wound healing assay. Format: functional, cell-based.
Assay [6] relates to I10. The assay can be described thus: Antiinvasive activity against mouse I10 cells assessed as reduction in number of invaded cells at 2.5 uM after 36 hrs under hypoxia condition by crystal violet staining based transwell assay. The class given is functional, cell-based.
In assay [7] the test system is I10. The assay can be described thus: Inhibition of cell migration in mouse I10 cells after 24 hrs under hypoxia condition by scratch wound healing assay. The class given is functional, cell-based.
The subject of assay [8] is I10. Nature of the assay: Antiinvasive activity against mouse I10 cells incubated for 36 hrs under hypoxia condition by crystal violet staining based transwell assay. Format: functional, cell-based.
For assay [9], the system named is I10. The assay can be described thus: Downregulation of HIF1alpha expression in mouse I10 cells at 20 uM after 24 hrs Western blot analysis. The class given is functional, cell-based. On the technique in general: Immunoblotting shows a protein as a band on a membrane.
Assay [10] has as its system I10. The assay can be described thus: Downregulation of MMP-2 expression in mouse I10 cells at 20 uM after 24 hrs Western blot analysis. Format: functional, cell-based.
For assay [11], the system named is I10. Nature of the assay: Downregulation of MMP-9 expression in mouse I10 cells at 20 uM after 24 hrs Western blot analysis. Format: functional, cell-based.

This passage reports IC50, Activity and inhibition results from ChEMBL document CHEMBL4602636, “Synthesis and in vitro antitumor evaluation of honokiol derivatives” (Bioorg Med Chem Lett, 2020).

Calls of active or inactive are those of the source. The calls are words filed in the database; no cut-off is given here.

What is called IC50 is the concentration that gives 50% inhibition.

On to `C=CCc1ccc(O)c(-c2ccc(OC)c(CC=C)c2)c1` [METHYLHONOKIOL], for which the IC50 in the assay on MCF7 was determined as 24.7 µM; in the assay with CNE2Z it was 25.5 µM; in the assay with I10 [1], 26.5 µM.

For `C=CCc1ccc(OCc2ccccc2)c(-c2ccc(OCc3ccccc3)c(CC=C)c2)c1`, the half-inhibitory concentration (IC50) with MCF7, with CNE2Z and in the assay with I10 [1] was over 50 µM in each case.

In the case of `C=CCc1ccc(OC)c(-c2ccc(O)c(CC=C)c2)c1`, the IC50 with MCF7 stood at 37.5 µM; in the assay on CNE2Z it was 30.3 µM; in the assay on I10 [1], 38 µM.

As to `C=CCc1ccc(O)c(-c2ccc(OCc3ccccc3)c(CC=C)c2)c1`, the IC50 with MCF7 was 23.2 µM; with CNE2Z, 30.3 µM; in the assay with I10 [1] it was 29.8 µM.

`C=CCc1ccc(OCc2ccccc2)c(-c2ccc(O)c(CC=C)c2)c1`: the IC50 is 22.3 µM in the assay on MCF7, 24 µM in the assay with CNE2Z and 21.8 µM with I10 [1].

For `C=CCc1ccc(OC)c(-c2ccc(OC)c(CC=C)c2)c1`, the IC50 in the assay with MCF7, with CNE2Z and with I10 [1] was over 50 µM each time.

Take `C=CCc1ccc(O)c(-c2ccc(OCC)c(CC=C)c2)c1`: the IC50 turned out to be 26.3 µM in the assay with MCF7, 24.1 µM in the assay with CNE2Z and 21.4 µM in the assay on I10 [1].

`C=CCc1ccc(OCc2c(Cl)cccc2Cl)c(-c2ccc(O)c(CC=C)c2)c1`: the values for the IC50 in the assay on MCF7, with CNE2Z and in the assay on I10 [1] were 19.4 µM, 19.9 µM and 17.2 µM, respectively.

For `C=CCc1ccc(OCC)c(-c2ccc(O)c(CC=C)c2)c1`, the IC50 in the assay on MCF7 amounted to 19.9 µM; in the assay on CNE2Z, 20.4 µM; in the assay on I10 [1] it was 24.7 µM.

For the compound `C=CCc1ccc(O)c(-c2ccc(O)c(CC=C)c2)c1` [HONOKIOL], the figures for the half-inhibitory concentration (IC50) in the assay with MCF7, with CNE2Z and in the assay with I10 [1] were 41.8 µM, 31.3 µM and 31.1 µM, respectively.

For `C=CCc1ccc(O)c(-c2ccc(OCc3ccc(Cl)c(Cl)c3)c(CC=C)c2)c1`, the IC50 in the assay with MCF7 came to 15.3 µM; in the assay with CNE2Z, 17.8 µM; in the assay on I10 [1], 12.3 µM.

For the compound `C=CCc1ccc(O)c(-c2ccc(OCc3c(Cl)cccc3Cl)c(CC=C)c2)c1`, the IC50 with MCF7 worked out at 11.5 µM; in the assay on CNE2Z it was 16.4 µM; in the assay with I10 [1], 16.6 µM.

As for `C=CCc1ccc(OCc2ccc(Cl)c(Cl)c2)c(-c2ccc(O)c(CC=C)c2)c1`, the IC50 was determined as 17.5 µM in the assay on MCF7, 14.2 µM with CNE2Z and 12.2 µM in the assay on I10 [1].

On to `C=CCc1ccc(O)c(-c2ccc(OCc3ccc(Cl)cc3Cl)c(CC=C)c2)c1`, for which the IC50 in the assay on MCF7 is 14.7 µM; in the assay with CNE2Z, 11.3 µM; in the assay on I10 [1], 10.4 µM. Moreover, the Activity result was “Tde” in the assay on I10 [2], “Dose-dependent effect” in the assay on I10 [3], 100% in the assay on I10 [4] and “Dose-dependent effect” in the assay on I10 [8]. Further, the inhibition entry in the assay with I10 [5] is “Active”. Further, the result in the assay on I10 [6], in the assay on I10 [9], in the assay on I10 [10] and in the assay on I10 [11] was Active. Besides, the inhibition entry with I10 [7] was “Dose-dependent effect”.

Take `C=CCc1ccc(OCc2ccc(Cl)cc2Cl)c(-c2ccc(OCc3ccc(Cl)cc3Cl)c(CC=C)c2)c1`: the IC50 in the assay with MCF7, in the assay with CNE2Z and with I10 [1] was over 50 µM each time.

For the compound `C=CCc1ccc(OCc2c(Cl)cccc2Cl)c(-c2ccc(OCc3c(Cl)cccc3Cl)c(CC=C)c2)c1`, the IC50 with MCF7, in the assay on CNE2Z and with I10 [1] was over 50 µM in each case.

As to `C=CCc1ccc(OCc2ccc(Cl)c(Cl)c2)c(-c2ccc(OCc3ccc(Cl)c(Cl)c3)c(CC=C)c2)c1`, the IC50 in the assay with MCF7, in the assay with CNE2Z and in the assay on I10 [1] was over 50 µM throughout.

On to `C=CCc1ccc(OCc2ccc(Cl)cc2Cl)c(-c2ccc(O)c(CC=C)c2)c1`, for which the IC50 turned out to be 27.4 µM in the assay on MCF7, 24.2 µM in the assay on CNE2Z and 21.1 µM with I10 [1].

`C=CCc1ccc(OCC)c(-c2ccc(OCC)c(CC=C)c2)c1`: the IC50 in the assay on MCF7, in the assay on CNE2Z and in the assay with I10 [1] was over 50 µM in each case.
